From US20250101032A1, “EXATECAN DERIVATIVES AND ANTIBODY-DRUG CONJUGATES THEREOF” (priority 2021, published 2025)
Values after ≈ are worked out from the molar mass of the structure shown. Like-named read-outs stand apart in the source and are kept apart here.

Experiments:
HT29 = assay: In vitro cytotoxicity assay (CellTiter-Glo), HT29; format: cell-based, Human; details: read-out: Cytotoxicity IC50
Description: (§1) Human tumor cell lines, SK-BR-3, NCI-H292, HT-29, MCF-7, NCI-N87, and FaDu were obtained from ATCC. NCI-H292, HT-29, MCF-7, and NCI-N87 cells were cultured in RPMI-1640 media (Gibco, Life Technologies) supplemented with 10% v/v heat inactivated FBS (Corning), FaDu cells were maintained in DMEM media (Gibco, Life Technologies) supplemented with 10% v/v heat inactivated FBS (Corning). SK-BR-3 cells were maintained in McCoys 5A medium (Gibco, Life Technologies) supplemented with 10% […] heat inactivated FBS (Corning) at 37° C. in a humidified incubator containing 5% CO2.
(§2) Lyophilized compounds were dissolved in 100% dry DMSO, aliquots frozen and stored at −80° C. Concentration and purity of compound stock solutions in DMSO were determined by RP-HPLC Agilent 1100 platform with 1200 DAD and SofTA ELSD detectors, and the Agilent 6150 MS system (UV/VIS, ELSD purity and MS compound identity confirmation). Shimadzu 3.0 mm×30 mm XR ODS 2.2 μm column was run at 50° C., 1.5 mL/min. Solvent A: 0.1% Formic acid in water, Solvent B: 0.08% Formic acid in methanol-Gradient: 5%-100% B in 3.0 min, 100% solvent B for 0.3 min. Concentration of compounds in 100% DMSO determined by ELS ranged from 1-6 mM.
(§3) Cells were plated in 96-well white flat-bottomed plates (Corning) at 2.0×10^3 cells per well in 100 μL culture medium. After incubation for 24 hours, test compounds were added at a range of concentrations as ten point serial dilution as duplicates or triplicates. Following further incubation for 6 days 37° C., 5% CO2, cell viability was assessed with the use of a CellTiter-Glo Luminescent Cell Viability Assay (Promega). Luminescence was measured using the GloMax instrument (Promega). […] For a subset of payloads, each treatment was independently repeated two to eight times, and IC50 values were averaged. […] Standard deviation (stdev) is shown as (N/A) for treatment performed once.

NCI-N87 = assay: In vitro cytotoxicity assay (CellTiter-Glo), NCI-N87; format: cell-based, Human; details: read-out: Cytotoxicity IC50
Description: as §1, §2, §3

FaDu = assay: In vitro cytotoxicity assay (CellTiter-Glo), FaDu; format: cell-based, Human; details: read-out: Cytotoxicity IC50
Description: as §1, §2, §3

physchem = details: 25 °C, pH 7.4, aqueous buffer, kinetic from dmso stock
Description: In-vitro kinetic solubilities of the compounds in PBS pH 7.4 buffer at 25° C. were determined by diluting compounds from 100% dimethyl sulfoxide (DMSO) into PBS buffer and measuring absorbance at 490, 590 and 650 nm. Stock concentrations in 100% DMSO were provided at 1-6 mM in 100% DMSO. Kinetic solubilities were determined by diluting test compounds from 100% DMSO into PBS pH 7.4 buffer, as duplicate, 10 point 2-fold serial dilution starting at 100× dilution of stock DMS solution into PBS buffer in a clear, flat bottom polystyrene assay plates. Total assay volume was 200 microliters. Solutions were mixed by plate shaking, incubated for 30 m at 25° C., and absorbance was read at 490, 590 and 650 nm. […] in PBS buffer was used as a blank. For each test compound, average optical density (GD) at each concentration was determined by averaging the blank corrected sum of absorption at 490 nm, 590 nm and 650 nm, over duplicate measurements. Turbidity threshold optical density value was set as a sum of mean plus two standard deviations of the mean of absorbances at 490, 590 and 650 nm for 1% (v/v) DMSO in PBS pH 7.4 buffer. Highest soluble concentration (micromolar) corresponded to the highest concentration at which average optical density was below optical density value set for turbidity threshold (Table 4). Amiodarone and propranolol were used as low and high solubility controls respectively.

SKBR3 = assay: In vitro cytotoxicity assay (CellTiter-Glo), SKBR3; format: cell-based, Human; details: read-out: Cytotoxicity IC50
Description: as §1, §2, §3

NCI-H292 = assay: In vitro cytotoxicity assay (CellTiter-Glo), NCI-H292; format: cell-based, Human; details: read-out: Cytotoxicity IC50
Description: as §1, §2, §3

MCF7 = assay: In vitro cytotoxicity assay (CellTiter-Glo), MCF7; format: cell-based, Human; details: read-out: Cytotoxicity IC50
Description: as §1, §2, §3

SKOV3 = assay: In vitro cytotoxicity assay (CellTiter-Glo), SKOV3; format: cell-based; details: read-out: Cytotoxicity IC50
Description: (§4) Lyophilized compounds were dissolved in 100% dry DMSO, aliquots frozen and stored at −80° C. […] Shimadzu 3.0 mm×30 mm XR ODS 2.2 μm column was run at 50° C., 1.5 mL/min. Solvent A: 0.1% Formic acid in water, Solvent B: 0.08% Formic acid in methanol-Gradient: 5%-100% B in 3.0 min, 100% solvent B for 0.3 min.
as §3

BXPC3 = assay: In vitro cytotoxicity assay (CellTiter-Glo), BXPC3; format: cell-based; details: read-out: Cytotoxicity IC50
Description: as §4, §3

Structure (SMILES) | IC50 (HT29; Homo sapiens, HT-29, 144 h) | IC50 (NCI-N87; Homo sapiens, NCI-N87, 144 h) | IC50 (FaDu; Homo sapiens, FaDu, 144 h) | solubility at 30 min (physchem) | IC50 (SKBR3; Homo sapiens, SK-BR-3, 144 h) | IC50 (NCI-H292; Homo sapiens, NCI-H292, 144 h) | IC50 (MCF7; Homo sapiens, MCF7, 144 h) | IC50 (SKOV3; Homo sapiens, SK-OV-3, 144 h) | IC50 (BXPC3; Homo sapiens, BXPC-3, 144 h) | IC50 (HT29; HT29 cells, 6 days incubation, mean of IC50 values) | IC50 (NCI-N87; NCI-N87 cells, 6 days incubation, mean of IC50 values) | IC50 (SKOV3; SKOV3 cells, 6 days incubation, mean of IC50 values) | IC50 (FaDu; FaDu cells, 6 days incubation, mean of IC50 values) | IC50 (BXPC3; BXPC3 cells, 6 days incubation, mean of IC50 values) | IC50 (SKBR3; SKBR3 cells, 6 days incubation, mean of IC50 values) | IC50 (NCI-H292; NCI-H292 cells, 6 days incubation, mean of IC50 values) | IC50 (MCF7; MCF7 cells, 6 days incubation, mean of IC50 values)
CC[C@@]1(O)C(=O)OCc2c1cc1n(c2=O)Cc2c-1nc1cc(F)c(C)c3c1c2[C@@H](NC(=O)[C@H]1C[C@H]1CO)CC3 (single isomer, unassigned) [Compound 111-B] | 6.3 nM | 5.2 nM | 1.1 nM | 30 µM (≈ 16 µg/mL) | 2.1 nM | 4.5 nM | 3.8 nM |  |  |  |  |  |  |  |  |  | 
CC[C@@]1(O)C(=O)OCc2c1cc1n(c2=O)Cc2c-1nc1cc(F)c(C)c3c1c2[C@@H](NC(=O)C1CC(O)C1)CC3 (stereo partly drawn) [Compound 58] | 177 nM | 49.4 nM | 6.3 nM |  | 12.1 nM | 60.5 nM | 32 nM |  |  |  |  |  |  |  |  |  | 
CC[C@@]1(O)C(=O)OCc2c1cc1n(c2=O)Cc2c-1nc1cc(F)c(C)c3c1c2[C@@H](NC(=O)C12CC(O)(C1)C2)CC3 [Compound 79] | 31.7 nM | 15.5 nM | 2.3 nM |  | 5.9 nM | 14 nM | 9.8 nM | 25.3 nM | 5.5 nM |  |  |  |  |  |  |  | 
CC[C@@]1(O)C(=O)OCc2c1cc1n(c2=O)Cc2c-1nc1cc(F)c(C)c3c1c2[C@@H](NC(=O)C#CCO)CC3 [Compound 83] | 255 nM | 159 nM | 16.5 nM |  | 25.6 nM | 121 nM | 42.2 nM |  |  |  |  |  |  |  |  |  | 
CC[C@@]1(O)C(=O)OCc2c1cc1n(c2=S)Cc2c-1nc1cc(F)c(C)c3c1c2[C@@H](NC(=O)CO)CC3 [Compound 106] | 1.1 nM | 0.9 nM |  |  | 0.4 nM | 0.4 nM | 0.2 nM |  |  |  |  |  |  |  |  |  | 
CC[C@@]1(O)C(=O)OCc2c1cc1n(c2=S)Cc2c-1nc1cc(F)c(C)c3c1c2[C@@H](N)CC3 [Compound 107] | 0.4 nM | 0.2 nM | 0.1 nM | 15 µM (≈ 6.77 µg/mL) | 0.1 nM | 0.6 nM | 0.2 nM |  |  |  |  |  |  |  |  |  | 
CC[C@@]1(O)C(=O)OCc2c1cc1n(c2=O)Cc2c-1nc1cc(F)c(C)c3c1c2[C@@H](NC(=O)CCC(=O)NC(CO)(CO)CO)CC3 [Compound 122] | 3400 nM | 2700 nM | 121 nM |  | 657 nM | 1020 nM | 205 nM | 819 nM | 227 nM |  |  |  |  |  |  |  | 
CC[C@@]1(O)C(=O)OCc2c1cc1n(c2=O)Cc2c-1nc1cc(F)c(C)c3c1c2[C@@H](N(C)CCO)CC3 [Compound 140] | 1.2 nM | 1.5 nM | 0.3 nM | 10 µM (≈ 4.94 µg/mL) | 0.8 nM | 3 nM | 0.2 nM |  |  |  |  |  |  |  |  |  | 
CC[C@@]1(O)C(=O)OCc2c1cc1n(c2=O)Cc2c-1nc1cc(F)c(C)c3c1c2[C@@H](NCCOCCO)CC3 [Compound 147] | 7.1 nM | 8.5 nM | 3 nM | 21 µM (≈ 11 µg/mL) | 2.7 nM | 9.4 nM | 3.1 nM |  |  |  |  |  |  |  |  |  | 
CC[C@@]1(O)C(=O)OCc2c1cc1n(c2=O)Cc2c-1nc1cc(F)c(C)c3c1c2[C@@H](NC(=O)C1(O)COC1)CC3 [Compound 159] | 64.2 nM | 22.4 nM | 2 nM | 27 µM (≈ 14.5 µg/mL) | 5.8 nM | 21.6 nM | 9.8 nM |  |  |  |  |  |  |  |  |  | 
CC[C@@]1(O)C(=O)OCc2c1cc1n(c2=O)Cc2c-1nc1cc(F)c(C)c3c1c2[C@@H](N(C=O)CCO)CC3 [Compound 163] | 65 nM | 29.4 nM | 7.8 nM | 24 µM (≈ 12.2 µg/mL) | 9.8 nM | 22.3 nM | 10.9 nM |  |  |  |  |  |  |  |  |  | 
CC[C@@]1(O)C(=O)OCc2c1cc1n(c2=O)Cc2c-1nc1cc(F)c(C)c3c1c2[C@@H](NCCNCCN)CC3 [Compound 164] | 32.7 nM | 22.8 nM | 8.8 nM | 10 µM (≈ 5.22 µg/mL) | 10.8 nM | 30.3 nM | 5.2 nM |  |  |  |  |  |  |  |  |  | 
CC[C@@]1(O)C(=O)OCc2c1cc1n(c2=O)Cc2c-1nc1cc(F)c(C)c3c1c2[C@@H](NC(=O)c1cc(O)[nH]n1)CC3 [Compound 166] | 663 nM | 410 nM | 93.8 nM | 22 µM (≈ 12 µg/mL) | 118 nM | 322 nM | 162 nM |  |  |  |  |  |  |  |  |  | 
CC[C@@]1(O)C(=O)OCc2c1cc1n(c2=O)Cc2c-1nc1cc(F)c(C)c3c1c2[C@@H](NC(=O)c1coc(CO)n1)CC3 [Compound 167] | 43.5 nM | 34 nM | 3 nM |  | 3.5 nM | 23 nM | 8.9 nM |  |  |  |  |  |  |  |  |  | 
CC[C@@]1(O)C(=O)OCc2c1cc1n(c2=O)Cc2c-1nc1cc(F)c(C)c3c1c2[C@@H](NC(=O)c1cc(CO)[nH]n1)CC3 [Compound 168] | 627 nM | 103 nM | 9.9 nM |  | 32.7 nM | 77.9 nM | 19.4 nM |  |  |  |  |  |  |  |  |  | 
CC[C@@]1(O)C(=O)OCc2c1cc1n(c2=S)Cc2c-1nc1cc(F)c(C)c3c1c2[C@@H](NC(=S)[C@H]1C[C@@H]1CO)CC3 [Compound 175-B] | 1.6 nM | 1.5 nM | 0.3 nM |  | 0.5 nM | 1.5 nM | 0.6 nM |  |  |  |  |  |  |  |  |  | 
CC[C@@]1(O)C(=O)OCc2c1cc1n(c2=O)Cc2c-1nc1cc(F)c(C)c3c1c2[C@@H](NC(=S)CO)CC3 [Compound 176] | 4.3 nM | 2.1 nM | 0.9 nM |  | 0.7 nM | 4.5 nM | 7.8 nM |  |  |  |  |  |  |  |  |  | 
CC[C@@]1(O)C(=O)OCc2c1cc1n(c2=O)Cc2c-1nc1cc(F)c(C)c3c1c2[C@@H](NC(=O)CCC1OCCO1)CC3 [Compound 188] | 13 nM | 9 nM | 1.5 nM | 6 µM (≈ 3.38 µg/mL) | 3.4 nM | 6.6 nM | 4.9 nM |  |  |  |  |  |  |  |  |  | 
CC[C@@]1(O)C(=O)OCc2c1cc1n(c2=O)Cc2c-1nc1cc(F)c(C)c3c1c2[C@@H](NC(=O)CO)CC3 [DXD] |  |  |  |  |  |  |  |  |  | 6.9 nM | 4.7 nM | 8.6 nM | 0.9 nM | 2.3 nM | 1.3 nM | 3.8 nM | 2.7 nM
CC(C)NCC(O)COc1cccc2ccccc12 (stereo not drawn) [Propranolol, propranolol, reference compound] |  |  |  | 100 µM (≈ 25.9 µg/mL) |  |  |  |  |  |  |  |  |  |  |  |  | 
